According to US20240293367A1, “METHODS OF TREATING DISORDERS WITH A […]” (Cybin IRL Limited, priority 2023, published 2024):
Structures can show the parent of a compound that is named as a salt. Where two headings read alike, the source gives them in different places.

What was measured:
MDD patients = conditions: cited from earlier work; for placebo subtracted difference in (LSM) change from baseline MADRS total score: pivotal clinical studies, package inserts; for placebo subtracted difference in LSM change from baseline on MADRS score: adjunctive to antidepressants
[1] = Clinical PD of psilocin after psilocybin (VAS-Any drug effect, MEQ30, 5D-ASC versus psilocin Cmax); format: in vivo, human
Description: To evaluate potential psychedelic effects at various doses of psilocin-d10, data were summarized/modeled from published literature for psilocin after psilocybin administration.
First, the VAS—Any drug effect score was modeled based on data from Holze et al. 2022 using a linear effect relationship to determine psilocin plasma concentrations in which a VAS—Any drug effect score of 20, 40, 60, and 80 mm was reached. This relationship is presented graphically in FIG. 4, based on the extraction of mean PK and PD data from the figures in Holze et al. 2022. Here, a linear concentration-effect relationship was identified with no evidence of hysteresis. As is evident from this modeled linear concentration-effect relationship according to Holze et al. 2022 (y=0.17+3.9x), a psilocin plasma concentration of about 15.34 ng/ml is the predicted amount required to achieve VAS-Any drug effect scores above 60 mm, a psilocin plasma concentration of about 17.9 ng/ml is the predicted amount required to achieve VAS-Any drug effect scores above 70 mm, and a psilocin plasma concentration of about 20.47 ng/ml is the predicted amount required to achieve a VAS-Any drug effect score of 80 mm.
This modeled relationship between psilocin plasma concentration and VAS-Any drug effect score is also in agreement with reported literature studies relating plasma psilocin concentrations (μg/L) to neocortical serotonin 5-HT2A receptor occupancy % and subjective intensity of the psychedelic experience (see Madsen MK, Fisher PM, Burmester D, et al (2019). Psychedelic effects of psilocybin correlate with serotonin 2A receptor occupancy and plasma psilocin levels. Neuropsychopharmacology, 44:1328-34), albeit the Madsen et al. study uses a VAS scoring system related specifically to psychedelic effects. The psilocin concentrations needed to reach the plateau in receptor occupancy and the required VAS scores (psychedelic effects) can be seen graphically in FIG. 5 and FIGS. 6A-6B, which are reproduced from Madsen et al. 2019 (FIGS. 3 and 4, respectively, in Madsen et al. 2019). […]

[2] = 28-day (4-week GLP) toxicology study in dogs, toxicokinetic exposure; conditions: dog, in vivo, 0.5 mg/kg; internal 4-week GLP toxicology study; read-out: Dog Cmax at 0.5 mg/kg
Description: The exposure limits will be applied on mean values within a cohort.

[3] = psilocin after psilocybin, Studerus et al. 2011; cited from earlier work
[4] = female, rat, in vivo, 40 mg/kg
[5] = linear model of Holze et al. 2022 data

What does the source list for `Cc1ccc(Sc2ccccc2N2CCNCC2)c(C)c1` [vortioxetine]?
difference in mean change from baseline of MADRS scores between placebo and drug (MDD patients; 20 mg, meta-analysis of 11 placebo-controlled trials): 4.57; placebo subtracted difference in (LSM) change from baseline MADRS total score (MDD patients): −2.8 to −5.9

For `CN(C)CCc1c[nH]c2cccc(O)c12` [psilocin, 4-hydroxy-N,N-dimethyltryptamine], which “psilocin plasma concentration predicted for VAS-Any drug effect scores above 70 mm” value ([1]; linear concentration-effect model) is on record?
The value was “about 17.9 ng/ml”.

What about the “psilocin Cmax / plasma concentration for VAS - Any drug effect: 20” value [1, 5] of the same molecule?
Its value is 5.08 ng/mL.

What about the “psilocin Cmax / plasma concentration for VAS - Any drug effect: 40” value [1, 5] of the same molecule?
The value was 10.2 ng/mL.

What about the Cmax [2] of the same molecule?
Its Cmax is 51.7 ng/mL.

And the “psilocin Cmax with no change in list of complaints + 5D-ASC” value [3]?
The value was 1.83 ng/mL.

And the Cmax [4]?
The Cmax was 343 ng/mL.

Which “placebo subtracted difference in (LSM) change from baseline MADRS total score” value (MDD patients) does the source give for `CCN(CC)C(=O)[C@@]1(c2ccccc2)C[C@H]1CN` [levomilnacipram] here?
Its value is −3.1 to −4.9.

With `CN(C)CCc1c[nH]c2ccccc12` [N,N-dimethyltryptamine (DMT), N,N-dimethyltryptamine] as the molecule, how does the “MADRS CFB reduction over placebo” value (MDD patients; intravenous, two-weeks postdose, Small Pharma press release) read?
Its value is −7.4.

For `CN(C)C(=O)N[C@H]1CC[C@H](CCN2CCN(c3cccc(Cl)c3Cl)CC2)CC1` [cariprazine], which “placebo subtracted difference in LSM change from baseline on MADRS score” value (MDD patients; 1.5 mg/day fixed dose, 95% CI: −4.2, −0.9) is on record?
The value was −2.5.

What about the “placebo subtracted difference in LSM change from baseline on MADRS score” value (MDD patients; flexible doses of 2-4.5 mg/day, 95% CI: −3.7, −0.6) of the same molecule?
Its value is −2.2.

What about the “placebo subtracted difference in (LSM) change from baseline MADRS total score” value (MDD patients) of the same molecule?
Its value is −2.2 to −2.5.

Which “placebo subtracted difference in (LSM) change from baseline MADRS total score” value (MDD patients) does the source give for `N#Cc1ccc2[nH]cc(CCCCN3CCN(c4ccc5oc(C(N)=O)cc5c4)CC3)c2c1` [vilazodone hydrochloride] here?
Its value is −2.5 to −5.1.
